In PubChem BioAssay (NCI):
Values joined by “and” are separate entries in the source; they are usually repeats but may differ in a detail not shown here. Identical values can stand only once.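 Method: 48-hour compound exposure of cells in 96-well plates, five concentrations, linear interpolation of endpoints. Abbreviation: GI50, concentration required for 50% inhibition of growth. At the TGI there is no net growth.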

Key:
Test in all cases: inhibition of tumour cell growth, NCI panel, 48 h
BT-549 breast = test system: BT-549 breast
DU-145 prostate = test system: DU-145 prostate
HOP-92 NSCLC = test system: HOP-92 NSCLC
HS 578T breast = test system: HS 578T breast
MDA-MB-435 = test system: MDA-MB-435
OVCAR-4 ovarian = test system: OVCAR-4 ovarian
PC-3 prostate = test system: PC-3 prostate
RXF 393 renal = test system: RXF 393 renal
SNB-75 CNS = test system: SNB-75 CNS
UACC-62 melanoma = test system: UACC-62 melanoma

| Structure (SMILES) | GI50 (BT-549 breast) | TGI (BT-549 breast) | GI50 (DU-145 prostate) | TGI (DU-145 prostate) | GI50 (HOP-92 NSCLC) | TGI (HOP-92 NSCLC) | GI50 (HS 578T breast) | TGI (HS 578T breast) [µM] | GI50 (MDA-MB-435) [µM] | TGI (MDA-MB-435) [µM] | GI50 (OVCAR-4 ovarian) | TGI (OVCAR-4 ovarian) | GI50 (PC-3 prostate) | TGI (PC-3 prostate) | GI50 (RXF 393 renal) | TGI (RXF 393 renal) | GI50 (SNB-75 CNS) | TGI (SNB-75 CNS) [µM] | GI50 (UACC-62 melanoma) | TGI (UACC-62 melanoma) |
| --- | --- | --- | --- | --- | --- | --- | --- | --- | --- | --- | --- | --- | --- | --- | --- | --- | --- | --- | --- | --- |
| Cc1cc(NC(=O)NCCCOc2ccc(N3C(N)=NC(N)=NC3(C)C)cc2Cl)ccc1S(=O)(=O)F | 4.85 µM | 21.7 µM | 0.786 µM | > 62.4 µM | 2.85 µM | 45.6 µM | 2.77 µM | 35 | 0.577 | 33.2 | 2.34 µM | > 100 µM | 0.376 µM | 44 µM | 13.5 µM | > 100 µM | 1.2 µM | 24.4 | 0.608 µM | 24.9 µM |
| COc1ccc(-c2nn3ncccc3c2-c2ccnc(Nc3ccc(F)c(F)c3)n2)cc1 | 15 µM | > 25 µM | 15.8 µM | > 25 µM | 3.99 µM | > 25 µM | 9.2 µM | > 25 | 7.39 | > 25 | 12.4 µM | > 25 µM | 8.7 µM | > 25 µM | 7.45 µM | > 25 µM | 8.49 µM | > 25 | 7.12 µM | > 25 µM |
| O=c1oc2ccccc2cc1P(=O)(O)O |  | > 100 µM |  | > 100 µM |  | > 100 µM |  | > 100 |  | > 100 |  | > 100 µM |  | > 100 µM |  | > 100 µM |  | > 100 |  | > 100 µM |
| N#Cc1nc2cc(Cl)c(Cl)cc2nc1-c1ccc(Cl)cc1 | > 100 µM | > 100 µM | 49.6 µM | > 100 µM | 27.8 µM | > 100 µM | 17.1 µM | 70.2 | > 83.4 | > 100 | > 100 µM | > 100 µM | 34.8 µM | > 67.7 µM | 11.2 µM | > 42.6 µM | 19.9 µM | 40.2 | 33.2 µM | > 70.9 µM |
| COc1cc2c(cc1OCCCCCOc1ccc(-c3nc4ccccc4s3)cc1)N=C[C@@H]1CCCN1C2=O | 3.45 µM | 16.4 µM | 2.08 µM | 13 µM | 0.886 µM | 3.62 µM | 2.02 µM | 7.68 | 10.5 | 69.2 | 3.02 µM | > 76.5 µM | 1.14 µM | 7.04 µM | 1.46 µM | 5.43 µM | 6.57 µM | 59.8 | 3.27 µM | 7.93 µM |
| CC[C@@H]1C(=O)N(C)c2cnc(Nc3ccc(C(=O)NC4CCC(N5CCN(CC6CC6)CC5)CC4)cc3OC)nc2N1C(C)C (stereo not given in full) | 0.078 µM and 0.0387 µM | > 10 µM and 6.44 µM | 0.0118 µM and 0.0379 µM | > 10 µM and 16.8 µM | 0.0441 µM and 0.0596 µM | > 2.9 µM and 5.99 µM | 0.0323 µM and 0.111 µM | 1.97 | < 0.01 | 0.0134 | 0.89 µM and 0.466 µM | > 10 µM and 19 µM | 0.0287 µM and 0.0366 µM | > 10 µM and 17.7 µM | 0.0349 µM and 0.0393 µM | > 9.08 µM and 4.9 µM | 0.0296 µM and 0.0344 µM | 6.73 | 0.0356 µM and 0.0388 µM | > 8.3 µM and 13.3 µM |
| COc1cc(-c2csc(NC(=O)Nc3ccc(Cl)cc3)n2)cc(OC)c1OC | 2.18 µM | 6.26 µM | 3.4 µM | 17.3 µM | 2.12 µM | 6.85 µM | 3.58 µM | 20.3 | 2.17 | 5.88 | 2.89 µM | > 49.6 µM | 2.4 µM | 8.39 µM | 3.91 µM | 13.9 µM | 2.12 µM | 8.39 | 1.93 µM | 4.22 µM |
| CN1CCN(c2ccc3nc(-c4[nH]ncc4Nc4ncnc5[nH]ccc45)[nH]c3c2)CC1 | 0.222 µM | 0.816 µM | 0.362 µM | 22.7 µM | 0.149 µM | 0.535 µM | 0.216 µM | 2.03 | 0.303 | 1.61 | 0.343 µM | 2.13 µM | 0.222 µM | 3.54 µM | 0.177 µM | 0.397 µM | 0.116 µM | 0.574 | 0.241 µM | 1.56 µM |
| O=C(Nc1ccccc1/C=C/c1n[nH]c2ccccc12)c1ccccc1 | 3.97 µM | 16.1 µM | 2.6 µM | 8.23 µM | 0.218 µM | 5.25 µM | 3.64 µM | 17.7 | 1.97 | 13.5 | 9.46 µM | 24.7 µM | 2.15 µM | 7.58 µM | 4.58 µM | 17.3 µM | 9.04 µM | 23.9 | 2.88 µM | 13 µM |
| CC(NC(=O)c1ccc(Cl)c(Cl)c1)c1ccc(-c2ccccc2)cc1 (stereo not given) |  | > 100 µM |  | 57.5 µM |  | > 100 µM |  | 65.1 |  | > 100 |  | 37.7 µM |  | > 100 µM |  | 28 µM |  | 39.3 |  | > 100 µM |
| CCn1c(-c2nonc2N)nc2cnc(Oc3cccc(NC(=O)c4ccc(OCCN5CCOCC5)cc4)c3)cc21 | 0.438 µM | 15.3 µM | 5.43 µM | > 25 µM | 0.0025 µM | > 25 µM | 0.0149 µM | 8.26 | 7.39 | > 25 | 4.48 µM | > 25 µM | 2.88 µM | > 25 µM | 1.31 µM | 12.9 µM | 0.0594 µM | 7.65 | 6.39 µM | > 25 µM |
| O=C(O)c1c2c(c(O)c3c1CN(C1CCCCC1)CO3)OCN(C1CCCCC1)C2 |  | > 100 µM |  | > 100 µM |  | > 100 µM |  | > 100 |  | > 100 |  | > 100 µM |  | > 100 µM |  | > 100 µM |  | > 100 |  | > 100 µM |
| COC1C(OC(=O)/C=C/C=C/C=C/C=C/C(=O)O)CCC2(CO2)C1C1(C)OC1CC=C(C)C (stereo not given) | 0.268 µM | > 100 µM | 0.651 µM | > 100 µM | 0.438 µM | > 76.1 µM |  | > 100 | 0.105 |  | 0.184 µM | > 87 µM |  | 73.1 µM | 0.265 µM |  | 0.287 µM | > 86.4 | 0.101 µM |  |
